Experiment [1] addresses Frizzled-1 (Rattus norvegicus) (UniProt Q08463). As to the kind of experiment: Antagonist activity at Wnt3a-stimulated rat frizzled-1 expressed in CHO cells up to 10 uM incubated for 24 hrs by luciferase reporter gene assay. Format: cell-based. To be noted: dose microM <=10, time 24.0 hrs. Background: In a reporter assay the amount or activity of a reporter protein is the signal.

The target of experiment [2] is Frizzled-2 (Rattus norvegicus) (UniProt Q08464). As to the kind of experiment: Antagonist activity at Wnt3a-stimulated rat frizzled-2 expressed in […] cells up to 10 uM incubated for 24 hrs by luciferase reporter gene assay. The following applies: dose microM <=10, time 24.0 hrs. Format: cell-based.
Frizzled-2 (Rattus norvegicus), sequence (Q08464 29-570 limits assumed): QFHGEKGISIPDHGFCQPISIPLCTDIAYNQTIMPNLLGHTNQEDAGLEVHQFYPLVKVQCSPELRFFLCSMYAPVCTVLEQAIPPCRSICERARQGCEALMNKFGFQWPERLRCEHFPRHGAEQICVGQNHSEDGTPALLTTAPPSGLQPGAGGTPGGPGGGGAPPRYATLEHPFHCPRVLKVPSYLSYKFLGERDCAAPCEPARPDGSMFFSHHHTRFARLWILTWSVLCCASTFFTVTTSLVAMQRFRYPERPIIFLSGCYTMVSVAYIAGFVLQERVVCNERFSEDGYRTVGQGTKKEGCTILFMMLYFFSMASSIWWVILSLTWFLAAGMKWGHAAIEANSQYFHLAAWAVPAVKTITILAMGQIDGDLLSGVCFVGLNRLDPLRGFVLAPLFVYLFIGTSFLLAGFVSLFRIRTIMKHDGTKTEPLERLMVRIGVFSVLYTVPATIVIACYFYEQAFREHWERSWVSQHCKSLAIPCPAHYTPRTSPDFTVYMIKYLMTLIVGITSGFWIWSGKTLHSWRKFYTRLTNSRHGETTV
Experiment [3] concerns the target Frizzled-1 (Rattus norvegicus) (UniProt Q08463). As to the kind of experiment: Antagonist activity at Wnt3a-stimulated rat frizzled-1 expressed in African green monkey COS7 cells up to 10 uM incubated for 24 hrs by luciferase reporter gene assay. The format is cell-based. To be noted: dose microM <=10, time 24.0 hrs.
In experiment [4] the target is Frizzled-2 (Rattus norvegicus) (UniProt Q08464). The experiment in a line: Antagonist activity at Wnt3a-stimulated rat frizzled-2 expressed in African green monkey COS7 cells up to 10 uM incubated for 24 hrs by luciferase reporter gene assay. The format is cell-based. The following applies: dose microM <=10, time 24.0 hrs.
For experiment [5], the target named is Frizzled-1 (Homo sapiens) (UniProt Q9UP38). The experiment in a line: Antagonist activity at Wnt3a-stimulaed frizzled-1 (unknown origin) expressed in human HEK293superTOP flash cells at 1 nM incubated for 24 hrs by luciferase reporter gene assay (reference value: 0%). The format is functional, cell-based.
Frizzled-1 (Homo sapiens), sequence (Q9UP38 70-647 limits assumed): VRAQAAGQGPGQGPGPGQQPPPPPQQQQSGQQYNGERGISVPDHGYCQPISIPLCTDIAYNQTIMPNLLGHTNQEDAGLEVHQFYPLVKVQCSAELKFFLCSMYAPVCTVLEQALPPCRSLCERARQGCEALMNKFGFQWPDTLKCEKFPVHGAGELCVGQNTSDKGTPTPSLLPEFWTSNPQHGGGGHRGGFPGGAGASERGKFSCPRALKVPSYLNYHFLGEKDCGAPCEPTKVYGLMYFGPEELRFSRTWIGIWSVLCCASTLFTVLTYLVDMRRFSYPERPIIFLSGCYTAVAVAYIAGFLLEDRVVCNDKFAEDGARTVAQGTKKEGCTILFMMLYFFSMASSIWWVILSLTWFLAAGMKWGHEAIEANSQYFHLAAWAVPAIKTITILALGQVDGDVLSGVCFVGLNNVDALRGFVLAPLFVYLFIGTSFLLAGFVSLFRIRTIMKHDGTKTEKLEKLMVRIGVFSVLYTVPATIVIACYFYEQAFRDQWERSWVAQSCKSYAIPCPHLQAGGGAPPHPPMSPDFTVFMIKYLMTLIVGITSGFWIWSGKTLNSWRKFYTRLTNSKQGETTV
Experiment [6] concerns the target Frizzled-2 (Homo sapiens) (UniProt Q14332). As to the kind of experiment: Antagonist activity at Wnt3a-stimulaed frizzled-2 (unknown origin) expressed in human HEK293superTOP flash cells at 1 nM incubated for 24 hrs by luciferase reporter gene assay (reference value: 0%). Format: functional, cell-based.
For experiment [7] the target is unchanged. As to the kind of experiment: Antagonist activity at Wnt3a-stimulated frizzled-2 (unknown origin) expressed in human HEK293superTOP flash cells at 10 nM incubated for 24 hrs by luciferase reporter gene assay. Format: functional, cell-based. To be noted: HEK293.
In experiment [8] the target is Frizzled-1 (Homo sapiens) (UniProt Q9UP38). The experiment in a line: Antagonist activity at Wnt3a-stimulated frizzled-1 (unknown origin) expressed in human HEK293superTOP flash cells at 10 nM incubated for 24 hrs by luciferase reporter gene assay. Format: functional, cell-based. To be noted: HEK293.

The source made the active and inactive calls. No cut-off for these calls is given here. Where a SMILES comes first, the peptide text is derived from it.

Frizzled-1 (Rattus norvegicus), sequence (Q08463 whole entry): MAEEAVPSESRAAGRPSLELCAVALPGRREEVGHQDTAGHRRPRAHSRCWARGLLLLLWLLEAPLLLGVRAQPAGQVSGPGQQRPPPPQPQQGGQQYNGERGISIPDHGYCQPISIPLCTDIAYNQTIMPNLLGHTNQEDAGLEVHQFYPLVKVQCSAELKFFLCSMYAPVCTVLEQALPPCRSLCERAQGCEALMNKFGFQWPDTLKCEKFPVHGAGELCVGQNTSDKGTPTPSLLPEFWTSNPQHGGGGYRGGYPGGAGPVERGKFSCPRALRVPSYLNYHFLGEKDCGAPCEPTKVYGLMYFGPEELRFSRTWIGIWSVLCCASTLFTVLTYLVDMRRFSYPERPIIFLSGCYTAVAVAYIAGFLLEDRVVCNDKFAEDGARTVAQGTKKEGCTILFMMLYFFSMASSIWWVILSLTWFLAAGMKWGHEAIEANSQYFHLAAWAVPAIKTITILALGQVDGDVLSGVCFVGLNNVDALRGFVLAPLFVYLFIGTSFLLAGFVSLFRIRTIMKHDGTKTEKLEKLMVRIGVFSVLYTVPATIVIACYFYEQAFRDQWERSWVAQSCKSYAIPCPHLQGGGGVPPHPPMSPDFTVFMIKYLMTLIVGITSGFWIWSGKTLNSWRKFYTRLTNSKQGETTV
Frizzled-2 (Homo sapiens), sequence (Q14332 24-565 limits assumed): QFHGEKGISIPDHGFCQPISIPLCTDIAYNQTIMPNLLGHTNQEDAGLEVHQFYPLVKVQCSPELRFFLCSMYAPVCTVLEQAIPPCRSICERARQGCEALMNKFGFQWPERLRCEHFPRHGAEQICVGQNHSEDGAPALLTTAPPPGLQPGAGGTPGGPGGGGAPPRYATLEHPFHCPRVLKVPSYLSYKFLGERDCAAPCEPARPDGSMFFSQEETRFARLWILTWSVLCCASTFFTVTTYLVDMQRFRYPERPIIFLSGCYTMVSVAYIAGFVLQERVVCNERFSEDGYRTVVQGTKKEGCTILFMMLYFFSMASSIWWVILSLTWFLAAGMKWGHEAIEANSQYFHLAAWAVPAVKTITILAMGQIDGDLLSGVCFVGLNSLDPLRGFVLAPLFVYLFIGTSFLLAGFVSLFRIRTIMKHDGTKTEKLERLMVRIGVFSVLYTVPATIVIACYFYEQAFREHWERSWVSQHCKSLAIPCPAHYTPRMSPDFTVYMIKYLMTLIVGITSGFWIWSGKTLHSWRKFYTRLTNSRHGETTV

On to `CSCC[C@H](NC(=O)[C@H](C)NC(=O)[C@H](CCC(=O)O)NC(=O)[C@H](CO)NC(=O)[C@H](C)NC(=O)[C@H](CCCCN)NC(=O)[C@H](CC(N)=O)NC(=O)[C@H](CS)NC(C)=O)C(=O)N[C@@H](C)C(=O)NCC(=O)N[C@@H](CS)C(=O)N[C@@H](CCC(=O)O)C(=O)N[C@@H](CC(C)C)C(N)=O` (Ac-CNKASEAMAGCEL-NH2), for which the inhibition entry in experiment [1], in experiment [2], in experiment [3], in experiment [4], in experiment [7] and in experiment [8] was “inactive” each time. Also, the figures for the inhibition in experiment [5] (HEK293) and in experiment [6] (HEK293) were 11.2% and 17.5%, respectively.

In the case of `CSCC[C@H](NC(=O)CNC(=O)[C@H](CCC(=O)O)NC(=O)[C@H](CO)NC(=O)[C@@H](NC(=O)[C@H](CCCCN)NC(=O)[C@H](CC(N)=O)NC(=O)[C@H](CS)NC(C)=O)[C@@H](C)O)C(=O)N[C@@H](CC(=O)O)C(=O)N[C@@H](C)C(=O)N[C@@H](CS)C(=O)N[C@@H](CCC(=O)O)C(=O)N[C@@H](CC(C)C)C(N)=O` (Ac-CNKTSEGMDACEL-NH2), the inhibition entry in experiment [1], in experiment [2], in experiment [3], in experiment [4], in experiment [7] and in experiment [8] was “inactive” each time. In addition, the inhibition (as a rule, the percentage by which the read-out fell short of the control) in experiment [5] (HEK293, filed as antagonist) was found to be 69.9%; in experiment [6] (HEK293, filed as antagonist), 83.3%.

Consider `CSCC[C@H](NC(=O)CNC(=O)[C@H](CCC(=O)O)NC(=O)[C@H](CO)NC(=O)[C@@H](NC(=O)[C@H](CCCCN)NC(=O)[C@H](CC(N)=O)NC(=O)[C@H](CS)NC(C)=O)[C@@H](C)O)C(=O)N[C@@H](C)C(=O)NCC(=O)N[C@@H](CS)C(=O)N[C@@H](CCC(=O)O)C(=O)N[C@@H](CC(C)C)C(N)=O` (Ac-CNKTSEGMAGCEL-NH2), for which the inhibition result in experiment [1], in experiment [2], in experiment [3], in experiment [4], in experiment [7] and in experiment [8] was “inactive” throughout. For the same compound, the inhibition turned out to be 40.5% in experiment [5] (HEK293, filed as antagonist) and 60.5% in experiment [6] (HEK293, filed as antagonist).

Regarding `CSCC[C@H](NC(=O)CNC(=O)[C@H](CCC(=O)O)NC(=O)[C@H](CO)NC(=O)[C@@H](NC(=O)[C@H](CCCCN)NC(=O)[C@H](CC(N)=O)NC(=O)[C@H](CS)NC(C)=O)[C@@H](C)O)C(=O)N[C@@H](CC(=O)O)C(=O)NCC(=O)N[C@@H](CS)C(=O)N[C@@H](CCC(=O)O)C(=O)N[C@@H](C)C(N)=O` (Ac-CNKTSEGMDGCEA-NH2), the inhibition entry in experiment [1], in experiment [2], in experiment [3], in experiment [4], in experiment [7] and in experiment [8] was “inactive” throughout. Moreover, the inhibition in experiment [5] (HEK293, filed as antagonist) was determined as 65.9%; in experiment [6] (HEK293, filed as antagonist) it was 86.5%.

In the case of `CSCC[C@H](NC(=O)CNC(=O)[C@H](CCC(=O)O)NC(=O)[C@H](CO)NC(=O)[C@@H](NC(=O)[C@H](C)NC(=O)[C@H](CC(N)=O)NC(=O)[C@H](CS)NC(C)=O)[C@@H](C)O)C(=O)N[C@@H](CC(=O)O)C(=O)NCC(=O)N[C@@H](CS)C(=O)N[C@@H](CCC(=O)O)C(=O)N[C@@H](CC(C)C)C(N)=O` (Ac-CNATSEGMDGCEL-NH2), the inhibition entry in experiment [1], in experiment [2], in experiment [3], in experiment [4], in experiment [7] and in experiment [8] was “inactive” in each case. Besides, the inhibition was found to be 70.8% in experiment [5] (HEK293, filed as antagonist) and 84.9% in experiment [6] (HEK293, filed as antagonist).

Consider `CSCC[C@H](NC(=O)CNC(=O)[C@H](CCC(=O)O)NC(=O)[C@H](CO)NC(=O)[C@@H](NC(=O)[C@H](CCCCN)NC(=O)[C@H](C)NC(=O)[C@H](CS)NC(C)=O)[C@@H](C)O)C(=O)N[C@@H](CC(=O)O)C(=O)NCC(=O)N[C@@H](CS)C(=O)N[C@@H](CCC(=O)O)C(=O)N[C@@H](CC(C)C)C(N)=O` (Ac-CAKTSEGMDGCEL-NH2), for which the inhibition result in experiment [1], in experiment [2], in experiment [3], in experiment [4], in experiment [7] and in experiment [8] was “inactive” in each case. The inhibition in experiment [5] (HEK293, filed as antagonist) was found to be 68%; in experiment [6] (HEK293, filed as antagonist), 79.5%.

For `CSCC[C@H](NC(=O)CNC(=O)[C@H](CCC(=O)O)NC(=O)[C@H](CO)NC(=O)[C@H](C)NC(=O)[C@H](CCCCN)NC(=O)[C@H](CC(N)=O)NC(=O)[C@H](CS)NC(C)=O)C(=O)N[C@@H](CC(=O)O)C(=O)NCC(=O)N[C@@H](CS)C(=O)N[C@@H](CCC(=O)O)C(=O)N[C@@H](CC(C)C)C(N)=O` (Ac-CNKASEGMDGCEL-NH2), the inhibition result in experiment [1], in experiment [2], in experiment [3], in experiment [4], in experiment [7] and in experiment [8] was “inactive” throughout. The inhibition in experiment [5] (HEK293) is 28.1%; in experiment [6] (HEK293, filed as antagonist), 59.4%.

As for Ac-ANKTSEGMDGCEL-NH2, the inhibition result in experiment [1], in experiment [2], in experiment [3], in experiment [4], in experiment [7] and in experiment [8] was “inactive” each time. For the same compound, the inhibition is 70.8% in experiment [5] (HEK293, filed as antagonist) and 82.6% in experiment [6] (HEK293, filed as antagonist).

For `CSCC[C@H](NC(=O)CNC(=O)[C@H](C)NC(=O)[C@H](CO)NC(=O)[C@@H](NC(=O)[C@H](CCCCN)NC(=O)[C@H](CC(N)=O)NC(=O)[C@H](CS)NC(C)=O)[C@@H](C)O)C(=O)N[C@@H](CC(=O)O)C(=O)NCC(=O)N[C@@H](CS)C(=O)N[C@@H](CCC(=O)O)C(=O)N[C@@H](CC(C)C)C(N)=O` (Ac-CNKTSAGMDGCEL-NH2), the inhibition entry in experiment [1], in experiment [2], in experiment [3], in experiment [4], in experiment [7] and in experiment [8] was “inactive” in each case. Moreover, the inhibition came to 70.8% in experiment [5] (HEK293, filed as antagonist) and 84.7% in experiment [6] (HEK293, filed as antagonist).

In the case of `CSCC[C@H](NC(=O)CNC(=O)[C@H](CCC(=O)O)NC(=O)[C@H](CO)NC(=O)[C@@H](NC(=O)[C@H](CCCCN)NC(=O)[C@H](CC(N)=O)NC(=O)[C@H](CS)NC(C)=O)[C@@H](C)O)C(=O)N[C@@H](CC(=O)O)C(=O)NCC(=O)N[C@@H](CS)C(=O)N[C@@H](C)C(=O)N[C@@H](CC(C)C)C(N)=O` (Ac-CNKTSEGMDGCAL-NH2), the inhibition result in experiment [1], in experiment [2], in experiment [3], in experiment [4], in experiment [7] and in experiment [8] was “inactive” in each case. Moreover, the inhibition is 65.9% in experiment [5] (HEK293, filed as antagonist) and 85.5% in experiment [6] (HEK293, filed as antagonist).

With `CC(=O)N[C@@H](CS)C(=O)N[C@@H](CC(N)=O)C(=O)N[C@@H](CCCCN)C(=O)N[C@H](C(=O)N[C@@H](CO)C(=O)N[C@@H](CCC(=O)O)C(=O)NCC(=O)N[C@@H](C)C(=O)N[C@@H](CC(=O)O)C(=O)NCC(=O)N[C@@H](CS)C(=O)N[C@@H](CCC(=O)O)C(=O)N[C@@H](CC(C)C)C(N)=O)[C@@H](C)O` (Ac-CNKTSEGADGCEL-NH2), the inhibition result in experiment [1], in experiment [2], in experiment [3], in experiment [4], in experiment [7] and in experiment [8] was “inactive” each time. In addition, the inhibition in experiment [5] (HEK293, filed as antagonist) was 67.6%; in experiment [6] (HEK293, filed as antagonist) it was 85%.

Regarding `CSCC[C@H](NC(=O)[C@H](C)NC(=O)[C@H](CCC(=O)O)NC(=O)[C@H](CO)NC(=O)[C@@H](NC(=O)[C@H](CCCCN)NC(=O)[C@H](CC(N)=O)NC(=O)[C@H](CS)NC(C)=O)[C@@H](C)O)C(=O)N[C@@H](CC(=O)O)C(=O)NCC(=O)N[C@@H](CS)C(=O)N[C@@H](CCC(=O)O)C(=O)N[C@@H](CC(C)C)C(N)=O` (Ac-CNKTSEAMDGCEL-NH2), the inhibition result in experiment [1], in experiment [2], in experiment [3], in experiment [4], in experiment [7] and in experiment [8] was “inactive” in each case. Also, the inhibition in experiment [5] (HEK293, filed as antagonist) amounted to 52.6%; in experiment [6] (HEK293, filed as antagonist) it was 63.1%.

For the compound Ac-CNKTSEGMDGAEL-NH2, the inhibition result in experiment [1], in experiment [2], in experiment [3], in experiment [4], in experiment [7] and in experiment [8] was “inactive” in each case. The inhibition came out at 67.2% in experiment [5] (HEK293, filed as antagonist) and 84.9% in experiment [6] (HEK293, filed as antagonist).

The values are drawn from ChEMBL document CHEMBL4806963, “Antagonistic peptides for frizzled-1 and frizzled-2” (2013).
